Measurements from patent US20200268701A1, “COMPOSITIONS AND METHODS FOR PRODUCING ELEVATED AND SUSTAINED KETOSIS” (University of South Florida, priority 2013, published 2020).
Structures can show the parent of a compound that is named as a salt.

Assays:
[1] = Change of body weight in rats during 28 days of ketone supplementation; type: in vivo, Sprague-Dawley rats; conditions: daily for 28 days
Method: Diets were not restricted for this study. Once a week, animals were fasted for 4 hours prior to intragastric gavage of the appropriate ketone supplement. The four hour food restriction was used to eliminate normal variance in blood glucose and ketone levels due to food consumption. […] Animals were weighed once per week to maintain accurate dosage using the […] Toledo SB 16001 scales. Rats were administered SO, MO, or SM daily for 28 days as described above. Each week the animals were weighed. […] The control animals continued to gain weight throughout the month-long study. In comparison, the ketone supplement treatment groups all gained less weight. […] A key finding of this study is that the SM group was able to limit weight gain in an unexpected way as the amounts of BHB and MCT when combined were much lower than the amounts of those ingredients used in the SO and MO treatment groups. This effect on body weight gain is likely due to appetite suppression caused by the supplements, rather than a reduced intake of the supplement itself, as force feeding controlled for dosing.

[2] = Blood βHB levels of a fasted 70 kg subject after oral administration; type: in vivo, human; design: unit: mM; conditions: for Blood βHB levels Mean: 70 kg male, mean of 3 days; for Blood βHB levels Day 1 / Blood βHB levels Day 2 / Blood βHB levels Day 3: 70 kg person
Method: (§1) To determine the time course of ketosis, the subjects were orally given the test substances of a BHB salt solution (450 mL; 4%, approximately 18 g), an MCT oil (30 mL, approximately 30 g), or a combination of the a BHB salt solution and an MCT oil. Blood concentrations of glucose and BHB were determined utilizing a commercially available glucose/ketone monitoring system (Precision Xtra® blood glucose and ketone meter) at defined time points (0, 15, 30, 60, 120, 240 and 480 minutes following ingestion of the test substances). Subject (70 kg) was instructed to fast for three days, and was given a single daily oral administration of either ßHB salts (4% solution containing 11 grams sodium ßHB and 7.1 grams potassium ßHB), MCT oil or ßHB salts+MCT oil at 15, 30, 60, 120, 240 and 480 minutes on 3 consecutive days. At 15, 30, 60, 120, 240 and 480 minutes after administration, blood was drawn. The subject returned on days 2 and 3 for additional supplements, with blood taken as on day 1, as in Example 1.

[3] = design: species or system Sprague-Dawley rats; conditions: rat, in vivo
Excerpt: (§2) Subject rats (n=74), 275-325 grams, were randomly assigned to a control group (no supplementation) or to one of three ketone precursor groups: medium chain triglyceride (MCT) oil (MO), mineral (Na^+/K+) salt of β-hydroxybutyrate (βHB) (SO), or SO+MO 1:1 combination (SM). The ketone mineral salt was developed and synthesized by Dr. Patrick Arnold from Prototype Nutrition. Pure pharmaceutical grade MCT oil was purchased from Now Foods (Bloomingdale, Ill.). SM was mixed at a 1:1 ratio.
(§3) Rats were supplemented with medium chain triglyceride (MCT) oil (MO), or a mineral (Na+/K+) salt of β-hydroxybutyrate (βHB) (SO), or SO+MO 1:1 mixture (SM) and force fed a daily at a dose of 5 g/kg body weight on days 1-14, followed by a 10 g/kg dose on days 15-28 rats Supplementation was given between 10 am and […] daily to eliminate variance based on regular eating patterns. Diets were not restricted for this study.
Once a week, animals were fasted for 4 hours prior to intragastric gavage of the appropriate ketone supplement. The four hour food restriction was used to eliminate normal variance in blood glucose and ketone levels due to food consumption. […]

[4] = Blood glucose levels of a fasted 70 kg subject after oral administration; type: in vivo, human; conditions: for Blood glucose levels Mean: 70 kg male, mean of 3 days; for Blood glucose levels Day 1 / Blood glucose levels Day 2 / Blood glucose levels Day 3: 70 kg person
Method: as §1, with “1. […] Blood glucose levels were determined as described above.” for “1.”

[5] = human, in vivo, po
Method: All procedures were done in accordance with the University of South Florida Institutional Review Board (IRB) guidelines. BHB salts and MCT oil were given to human subjects as a ketogenic food supplement and blood measurements of BHB and/or glucose were taken at predetermined time points.
To determine the time course of ketosis, the subjects were orally given the test substances of a BHB salt solution (450 mL; 4%, approximately 18 g), an MCT oil (30 mL, approximately 30 g), or a combination of the a BHB salt solution and an MCT oil. Blood concentrations of glucose and BHB were determined utilizing a commercially available glucose/ketone monitoring system (Precision Xtra® blood glucose and ketone meter) at defined time points (0, 15, 30, 60, 120, 240 and 480 minutes following ingestion of the test substances).
The subject was administered a BHB salt solution containing 4% Na^+/K^+ BHB salts in solution, an MCT oil, or a combination of the 4% Na^+/K^+ BHB salts and the MCT oil. At 15, 30, 60, 120, 240 and 480 minutes after administration, blood was drawn. The subject returned on days 2 and 3 for additional supplements, with blood taken as on day 1. Levels of BHB in the blood were determined as described above.

[6] = Blood glucose levels in rats after ketone supplementation; type: in vivo, Sprague-Dawley rats
Excerpt: as §2, §3
Once a week, animals were fasted for 4 hours prior to intragastric gavage of the appropriate ketone supplement. The four hour food restriction was used to eliminate normal variance in blood glucose and ketone levels due to food consumption. Whole blood samples (10 μL) were acquired from the saphenous vein of the subjects for analysis of glucose and βHB utilizing the commercially available glucose and ketone monitoring system Precision Xtra™ (Abbott Laboratories, Abbott Park, Ill.) at time intervals of 0, 0.5, 1, 4, 8, and 12 hours after ketone precursor supplements were administered, or until βHB returned to baseline. On Day 0 (Week 0) and Day 28 (Week 4), whole blood samples (10 μL) were acquired for analysis of total cholesterol, HDL, and triglycerides for a lipid panel utilizing the commercially available home cholesterol analyzer Cardio Chek™ (Polymer Technology Systems, Inc., Indianapolis, Ind.) at time 0. Animals were weighed once per week to maintain accurate dosage using the Mittler Toledo SB 16001 scales.

For `CC(O)CC(=O)O` (stereo not drawn) [BHB salt (450 mL), β-hydroxybutyrate], the “Body weight gain compared to controls (in words)” value [1] was “gained significantly less weight compared to controls”, the “Blood βHB levels Mean” value ([2]; time 0 minutes) was 0.87 and the “Blood βHB levels Mean” value ([2]; time 30 minutes) was 1.73. For the same compound, the “Blood βHB levels Mean” value ([2]; time 60 minutes) was 2.77, the “Blood βHB levels Mean” value ([2]; time 120 minutes) was 1.73 and the “Blood βHB levels Mean” value ([2]; time 240 minutes) was 1.53. For the same compound, the “Blood βHB levels Mean” value ([2]; time 480 minutes) was 1.53, the “Blood βHB levels Day 1” value ([2]; time 0 minutes) was 0.2 and the “Blood βHB levels Day 2” value ([2]; time 0 minutes) was 0.6. For the same compound, the “Blood βHB levels Day 3” value ([2]; time 0 minutes) was 1.8, the “Blood βHB levels Day 1” value ([2]; time 30 minutes) was 0.7 and the “Blood βHB levels Day 2” value ([2]; time 30 minutes) was 1.8. The “Blood βHB levels Day 3” value ([2]; time 30 minutes) was 2.7, the “Blood βHB levels Day 1” value ([2]; time 60 minutes) was 1.1 and the “Blood βHB levels Day 2” value ([2]; time 60 minutes) was 2.4. The “Blood βHB levels Day 3” value ([2]; time 60 minutes) was 4.8, the “Blood βHB levels Day 1” value ([2]; time 120 minutes) was 0.3 and the “Blood βHB levels Day 2” value ([2]; time 120 minutes) was 1.6. For the same compound, the “Blood βHB levels Day 3” value ([2]; time 120 minutes) was 3.3, the “Blood βHB levels Day 1” value ([2]; time 240 minutes) was 0.4 and the “Blood βHB levels Day 2” value ([2]; time 240 minutes) was 1.2. The “Blood βHB levels Day 3” value ([2]; time 240 minutes) was 3, the “Blood βHB levels Day 1” value ([2]; time 480 minutes) was 0.6 and the “Blood βHB levels Day 2” value ([2]; time 480 minutes) was 1.6. For the same compound, the “Blood βHB levels Day 3” value ([2]; time 480 minutes) was 2.4, the “Triglyceride levels at week 4 compared with week 0” value [3] was “mildly elevated” and the “Blood glucose levels Mean” value ([4]; time 0 minutes) was 90.00. The “Blood glucose levels Mean” value ([4]; time 30 minutes) was 87.00, the “Blood glucose levels Mean” value ([4]; time 60 minutes) was 81.00 and the “Blood glucose levels Mean” value ([4]; time 120 minutes) was 77.33. The “Blood glucose levels Mean” value ([4]; time 240 minutes) was 77.33, the “Blood glucose levels Mean” value ([4]; time 480 minutes) was 74.67 and the “Blood glucose levels Day 1” value ([4]; time 0 minutes) was 100. For the same compound, the “Blood glucose levels Day 2” value ([4]; time 0 minutes) was 90, the “Blood glucose levels Day 3” value ([4]; time 0 minutes) was 80 and the “Blood glucose levels Day 1” value ([4]; time 30 minutes) was 95. The “Blood glucose levels Day 2” value ([4]; time 30 minutes) was 95, the “Blood glucose levels Day 3” value ([4]; time 30 minutes) was 71 and the “Blood glucose levels Day 1” value ([4]; time 60 minutes) was 85. The “Blood glucose levels Day 2” value ([4]; time 60 minutes) was 90, the “Blood glucose levels Day 3” value ([4]; time 60 minutes) was 68 and the “Blood glucose levels Day 1” value ([4]; time 120 minutes) was 82. The “Blood glucose levels Day 2” value ([4]; time 120 minutes) was 85, the “Blood glucose levels Day 3” value ([4]; time 120 minutes) was 65 and the “Blood glucose levels Day 1” value ([4]; time 240 minutes) was 80. The “Blood glucose levels Day 2” value ([4]; time 240 minutes) was 84, the “Blood glucose levels Day 3” value ([4]; time 240 minutes) was 68 and the “Blood glucose levels Day 1” value ([4]; time 480 minutes) was 76. For the same compound, the “Blood glucose levels Day 2” value ([4]; time 480 minutes) was 80, the “Blood glucose levels Day 3” value ([4]; time 480 minutes) was 68 and the “Elevation in BHB levels (in words)” value [5] was “higher elevation in BHB levels than MCT oil alone”. The “Blood glucose versus control (in words)” value ([6]; 5 g/kg, week 0) was “did not show any significant difference compared to control”, the “Blood glucose versus control (in words)” value ([6]; 5 g/kg, week 1) was “began reducing glucose by 8 hours” and the “Blood glucose versus control (in words)” value ([6]; 10 g/kg, week 2 onward) was “reduced glucose levels at 30 minutes through 8 hours”.

In the case of “medium chain triglyceride (MCT) oil [MCT (30 mL)]”, the “Triglyceride levels at week 4 compared with week 0” value [3] is reported as “little change”, the “Elevation in BHB levels (in words)” value [5] is reported as “little elevation in BHB levels” and the “Time of peak plasma BHB level after administration” value [5] is reported as 60 min.
